Test results taken from US8633134B2, “Substituted amidine compounds for combating animal pests” (priority 2008, dated 2014).

Columns and labels:
Format in all cases: in vivo
[1] = system: Diamond Back Moth (Plutella xylostella); experiment: Diamond back moth leaf dip test; details: foliar, 120 h
Experimental: The active compound is dissolved at the desired concentration in a mixture of 1:1 (vol:vol) distilled water:acteon. The test solution is prepared at the day of use and in general at concentrations of […].
Leaves of Chinese cabbage were dipped in test solution and air-dried. Treated leaves were placed in petri dished lined with moist filter paper. Mortality was recorded 24, 72, and 120 hours after treatment.

[2] = system: Mediterranean Fruitfly (Ceratitis capitata); experiment: Mediterranean fruitfly microtiter plate diet test; details: 120 h
Experimental: For evaluating control of Mediterranean fruitfly (Ceratitis capitata) the test unit consisted of microtiter plates containing an insect diet and 50-80 C. capitata eggs. The compounds were formulated using a solution containing 75% v/v water and 25% v/v DMSO. Different concentrations of formulated compounds were sprayed onto the insect diet at 5 μl, using a custom built micro atomizer, at two replications.
After application, microtiter plates were incubated at about 28±1° C. and about 80±5% relative humidity for 5 days. Egg and larval mortality was then visually assessed.

[3] = system: Orchid Thrips (Dichromothrips corbetti); experiment: Orchid thrips floral-immersion test; details: 96 h
Experimental: Dichromothrips corbetti adults used for bioassay are obtained from a colony maintained continuously under laboratory conditions. For testing purposes, the test compound is diluted to a concentration of 300 ppm (wt compound: vol diluent) in a 1:1 mixture of acetone:water (vol:vol), plus 0.01% vol/vol Kinetic® surfactant.
Thrips potency of each compound is evaluated by using a floral-immersion technique. Plastic petri dishes are used as test arenas. All petals of individual, intact orchid flowers are dipped into treatment solution and allowed to dry. Treated flowers are placed into individual petri dishes along with 10-15 adult thrips. The petri dishes are then covered with lids. All test arenas are held under continuous light and a temperature of about 28° C. for duration of the assay. After 4 days, the numbers of live thrips are counted on each flower, and along inner walls of each petri dish. The level of thrips mortality is extrapolated from pre-treatment thrips numbers.

[4] = system: Silverleaf Whitefly (Bemisia argentifolii); experiment: Silverleaf whitefly cotton plant spray test; details: 72 h, 3 days after treatment, in comparison with untreated controls
Excerpt: (§1) The active compounds were formulated in cyclohexanone as a 10,000 ppm solution supplied in tubes. The tubes were inserted into an automated electrostatic sprayer equipped with an atomizing nozzle and they served as stock solutions for which lower dilutions were made in 50% acetone:50% water (v/v). A nonionic surfactant (Kinetic®) was included in the solution at a volume of 0.01% (v/v).
Cotton plants at the cotyledon stage (one plant per pot) were sprayed by an automated electrostatic plant sprayer equipped with an atomizing spray nozzle. The plants were dried in the sprayer fume hood and then removed from the sprayer. Each pot was placed into a plastic cup and about 10 to 12 whitefly adults (approximately 3-5 days old) were introduced. The insects were collected using an aspirator and a nontoxic Tygon® tubing connected to a barrier pipette tip. The tip, containing the collected insects, was then gently inserted into the soil containing the treated plant, allowing insects to crawl out of the tip to reach the foliage for feeding. Cups were covered with a reusable screened lid. Test plants were maintained in a growth room at about 25° C. and about 20-40% relative humidity for 3 days, avoiding direct exposure to fluorescent light (24 hour photoperiod) to prevent trapping of heat inside the cup. Mortality was assessed 3 days after treatment, compared to untreated control plants.

[5] = system: Southern Armyworm (Spodoptera eridania); experiment: Southern armyworm lima bean foliar spray test; details: 96 h
Experimental: as §1
(§2) Lima bean plants (variety Sieva) were grown 2 plants to a pot and selected for treatment at the 1st true leaf stage. Test solutions were sprayed onto the foliage by an automated electrostatic plant sprayer equipped with an atomizing spray nozzle. The plants were dried in the sprayer fume hood and then removed from the sprayer. Each pot was placed into perforated plastic bags with a zip closure. About 10 to 11 armyworm larvae were placed into the bag and the bags zipped closed. Test plants were maintained in a growth room at about 25° C. and about 20-40% relative humidity for 4 days, avoiding direct exposure to fluorescent light (24 hour photoperiod) to prevent trapping of heat inside the bags. Mortality and reduced feeding were assessed 4 days after treatment, compared to untreated control plants.

[6] = system: Tobacco Budworm (Heliothis virescens); experiment: Tobacco budworm cotton plant foliar spray test; details: 96 h
Experimental: as §1
as §2, with “Cotton” for “Lima bean”, “plants” for “plants (variety Sieva)”, “cotyledon” for “1st true leaf”, “budworm” for “armyworm”

[7] = system: Boll Weevil (Anthonomus grandis); experiment: Boll weevil microtiter plate diet test; details: 120 h
Experimental: For evaluating control of boll weevil (Anthonomus grandis) the test unit consisted of 24-well-microtiter plates containing an insect diet and 20-30 A. grandis eggs.
The compounds were formulated using a solution containing 75% v/v water and 25% v/v DMSO. Different concentrations of formulated compounds were sprayed onto the insect diet at 20 μl, using a custom built micro atomizer, at two replications. After application, microtiter plates were incubated at about 23±1° C. and about 50±5% relative humidity for 5 days. Egg and larval mortality was then visually assessed.

[8] = system: House Fly Adults (Musca domestica); experiment: House fly adults glass vial contact assay; details: 48 h after treatment, in comparison with untreated controls
Experimental: If not otherwise specified, the tests were conducted as glass vial contact assays. Glass vials (20 ml scintillation vials) were used. Treatment solutions were mixed with technical grade chemicals diluted in acetone. Treatment solutions needed for the assays included generally 1 and 10 ppm (0.01 and 0.1 μg/cm^2, respectively), but optionally also 100 and/or 1000 ppm for first tier vials. As commercial standard, alphacypermethrin, was run at 1 ppm. As solvent control, acetone was used for the assay. Treatment solution was pipetted into the bottom of each vial. Each vial was turned on its side and placed onto a commercial grade hot dog roller without applying heat. The uncapped vials were allowed to roll to allow for the acetone treatment to vent off. After drying, the vials were placed into the compartmented vial shipping boxes. The workstation was prepared by chilling the table and plastic Petri dishes with the inside wall coated with Fluon. A weigh boat of 10% sugar water saturated cotton dental pellets was also prepared. The animal pests were collected into a tube with a rechargeable insect vacuum. The tube of animal pests was placed in a laboratory refrigerator until the animal pests were incapacitated. The animal pests were emptied into chilled Petri dish. A small cotton dental pellet was soaked in water or in 10 wt % sugar water, whereas the excess solution was gently squeezed out. […]

[9] = system: yellowfever mosquito larvae (Aedes aegypti); experiment: Larval mosquito water treatment assay; details: 120 h, 5 DAT (days after treatment), first tier test, in comparison with untreated controls
Experimental: The assay was conducted in 6-well polystyrene plates using one plate per treatment rate. Stock solutions were prepared at 100 and 1000 ppm. Screen rates were at 1 and 10 ppm. Distilled water was added to each well, control wells were treated with acetone. Temephos (Abate technical) was used as the standard at 0.1 ppm. Ten late thirdinstar yellowfever mosquito larvae (Aedes aegypti) in water were added to each well. One drop of liver powder solution (6 g in 100 ml distilled water) was added to each well as a food source daily. Plates were maintained at 22-25° C. and 25-50% RH (relative humidity) and observed daily for dead larvae and pupae at 1, 2, 3, and 5 days after treatment. Dead larvae and all pupae were removed daily. Mortality was defined as an insect incapable of coordinated movement when agitated.

CON=C(c1ccc(C2=NOC(c3cc(Cl)cc(Cl)c3)(C(F)(F)F)C2)cc1C)N(C)C (stereo not drawn) [Compound 1-3, 4-[5-(3,5-Dichloro-phenyl)-5-trifluoromethyl-4,5-dihydro-isoxazol-3-yl]-N′-methoxy-2,N,N-trimethyl-benzamidine]
≥ 75%: mortality at 300 ppm [1] | mortality at 2500 ppm [2] | mortality at 300 ppm [3] | mortality at 300 ppm [4] | mortality at 300 ppm [5] | mortality at 2500 ppm [6] | mortality at 2500 ppm [7] | mortality at 10 ppm [8] | mortality at 1 ppm [9]
